# In patent US11446287B2, “Compounds and methods for EP300 or CBP modulation and indications therefor” (Opna Immuno-Oncology SA, priority 2019, dated 2022):
# Target: T1, Recombinant human EP300 containing the bromodomain (EP300-BD (1040-1161)) (Homo sapiens, UniProt Q09472)
# T1 construct: Recombinant human EP300 bromodomain (EP300-BD (1040-1161)); made in house; host or cells: E. coli BL21-CodonPlus (DE3), modified pET vector
# T1 sequence (Q09472 1040-1161): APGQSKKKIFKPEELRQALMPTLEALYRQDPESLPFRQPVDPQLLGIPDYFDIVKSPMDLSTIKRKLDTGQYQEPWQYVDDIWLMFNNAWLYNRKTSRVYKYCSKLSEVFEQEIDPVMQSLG
# Assay: EP300 Alphascreen binding assay
# Method in brief: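 Displacement of a biotinylated acetyl-K56 histone H3 peptide from the N-His bromodomain construct (1040-1161) measured by AlphaScreen proximity, beads at 7.5 μg/ml final, read 60 min after addition. Protein, peptide and compound first incubated 1 h at room temperature, pH 7.5 HEPES buffer; IC50 by four-parameter logistic fit.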
row,Structure (SMILES),IC50
1,"Cc1noc(C)c1-c1cnc2c(c1)c(-c1ccc(C(=O)O)cc1OC1CC1)cn2C1CCOCC1 [P-0379, 3-cyclopropoxy-4-(5-(3,5-dimethylisoxazol-4-yl)-1-(tetrahydro-2H-pyran-4-yl)-1H-pyrrolo[2,3-b]pyridin-3-yl)benzoic acid]",0.1 to 1000 nM
2,"Cc1noc(C)c1-c1cnc2c(c1)c(-c1c(Cl)cc(C(=O)O)cc1OC(F)(F)F)cn2C(C1CCC1)C1CCC1 [P-0380, 3-chloro-4-(1-(dicyclobutylmethyl)-5-(3,5-dimethylisoxazol-4-yl)-1H-pyrrolo[2,3-b]pyridin-3-yl)-5-(trifluoromethoxy)benzoic acid]",0.1 to 1000 nM
3,"Cc1noc(C)c1-c1cnc2c(c1)c(-c1c(Cl)cc(C(=O)O)cc1OC1CC1)cn2C1CCOCC1 [P-0381, 3-chloro-5-cyclopropoxy-4-(5-(3,5-dimethylisoxazol-4-yl)-1-(tetrahydro-2H-pyran-4-yl)-1H-pyrrolo[2,3-b]pyridin-3-yl)benzoic acid]",0.1 to 1000 nM
4,"Cc1noc(C)c1-c1cnc2c(c1)c(-c1ccc(C(=O)O)cc1OC(F)(F)F)cn2C1CCCC1 [P-0382, 4-(1-cyclopentyl-5-(3,5-dimethylisoxazol-4-yl)-1H-pyrrolo[2,3-b]pyridin-3-yl)-3-(trifluoromethoxy)benzoic acid]",0.1 to 1000 nM
5,"Cc1noc(C)c1-c1cnc2c(c1)c(-c1ccc(C(=O)O)cc1OC(F)(F)F)cn2C1(C)CCOC1 (stereo not drawn) [P-0383, 4-(5-(3,5-dimethylisoxazol-4-yl)-1-(3-methyltetrahydrofuran-3-yl)-1H-pyrrolo[2,3-b]pyridin-3-yl)-3-(trifluoromethoxy)benzoic acid]",0.1 to 1000 nM
6,"Cc1noc(C)c1-c1cnc2c(c1)c(-c1ccc(C(=O)O)cc1OC(F)(F)F)cn2-c1cnc(C2CC2)nc1 [P-0384, 4-(1-(2-cyclopropylpyrimidin-5-yl)-5-(3,5-dimethylisoxazol-4-yl)-1H-pyrrolo[2,3-b]pyridin-3-yl)-3-(trifluoromethoxy)benzoic acid]",0.1 to 1000 nM
7,"Cc1noc(C)c1-c1cnc2c(c1)c(-c1ccc(C(=O)O)cc1OC(F)(F)F)cn2C1(C)CCOCC1 [P-0385, 4-(5-(3,5-dimethylisoxazol-4-yl)-1-(4-methyltetrahydro-2H-pyran-4-yl)-1H-pyrrolo[2,3-b]pyridin-3-yl)-3-(trifluoromethoxy)benzoic acid]",0.1 to 1000 nM
8,"Cc1noc(C)c1-c1cnc2c(c1)c(-c1c(Cl)cc(C(=O)O)cc1OC(F)(F)F)cn2-c1cnc(C2CC2)nc1 [P-0386, 3-chloro-4-(1-(2-cyclopropylpyrimidin-5-yl)-5-(3,5-dimethylisoxazol-4-yl)-1H-pyrrolo[2,3-b]pyridin-3-yl)-5-(trifluoromethoxy)benzoic acid]",0.1 to 1000 nM
9,"Cc1noc(C)c1-c1cnc2c(c1)c(-c1ccc(C(=O)O)cc1OCC(F)F)cn2-c1cnc(C2CC2)nc1 [P-0387, 4-(1-(2-cyclopropylpyrimidin-5-yl)-5-(3,5-dimethylisoxazol-4-yl)-1H-pyrrolo[2,3-b]pyridin-3-yl)-3-(2,2-difluoroethoxy)benzoic acid]",0.1 to 1000 nM
